“Also recorded” adds a separate entry of the source.
How the values were obtained:
PTP1B-L192A/S372P = PTP1B-L192A/S372P (Homo sapiens, UniProt P18031, L192A/S372P); assay: Phosphatase assay with MSI-1436-resistant mutant; type: biochemical; conditions: read-out: IC50 against PTP1B-L192A/S372P
From the text: (§1) All common reagents were obtained from Thermo Fisher Scientific (Waltham, MA) or Sigma-Aldrich (St. Louis, MO). Difluoro-4-methylumbelliferyl phosphate (DiFMUP) was obtained from Invitrogen (cat #D22065). Solid black 384-well plates (cat #3573) for phosphatase assays were from Corning Incorporated (Corning, NY).

[1] = test system: PTP1B1-367, PTP1B1-346 and PTP1B1-321; assay: Phosphatase assay with C-terminal truncation mutants; type: biochemical
From the text: as §1

[2] = ESI-MS analysis of complex formation with copper salts; type: binding
Protocol: (§2) Eight equivalents of M(NO3)2·xH2O or MSO4·xH2O (M=Cu, Zn) were reacted with 1 eq. of DPM-1001 (1 mM in H2O). The reaction solutions were stirred at RT, 40° C. and 80° C. for 2 h. Mass spectra were recorded on a Bruker Esquire 6000 HCT quadrupole ion trap instrument (Bruker Daltonik GmbH, Leipzig, Germany), equipped with an electrospray ionization (ESI) source. Generation of the molecular formula of the DPM-1001/Cu(II) species and the comparison between the theoretical (simulated) and the measured isotopic patterns was performed using the DataAnalysis 4.0 software (Bruker).
Eight equivalents of M(NO3)2·xH2O or MSO4·xH2O were reacted with 1 eq. of DPM-1001, DPM-1003 or analog 2 (1 mM in H2O). The reaction solutions were stirred at RT, 40° C. and 80° C. for 2 h. Each sample was diluted 5-fold in 50% methanol, 0.1% formic acid and loaded into a 500 μL syringe. A Thermo Vantage triple quadrupole mass spectrometer (Thermo Scientific), equipped with an HESI spray source was coupled to an Accela HPLC system (Thermo Scientific). Mobile phase A consisted of 0.1% formic acid and mobile phase B consisted of 0.1% formic acid in methanol. Isocratic flow was set to 50% B at 200 μL/min. 200 μl samples were injected into the LC flow line via syringe pump at 10 μL/min and electrosprayed into the Vantage triple quadrupole mass spectrometer. A spray voltage of 4.3 kV was used along with a capillary temperature of 350° C. Each full MS scan was 0.5 s and data were collected with a scan range of 200 m/z to 900 m/z over 1 min.
Binding of compounds of Formula I other than DPM-1001 was also confirmed. In an ESI-MS test, compound DPM-1013 as hydrochloride salt was dissolved in distilled water at a concentration of 2 mM freshly before testing. It was then mixed with an equal volume copper sulfate (16 mM) or copper chloride solution (16 mM) for 2 h, rendering a concentration of DPM-1013 at 1 mM and the copper salt 8 mM. The mixture was then further diluted 100-fold before injection into an ESI-MS, making a final concentration of DPM-1013 of 10 μM and Cu 80 μM in the test.
Binding percentage=peak intensity of all DPM-1013-Cu complex/(peak intensity of all DPM-1013-Cu complex+peak intensity of free DPM-1013).

[3] = ESI-MS analysis of complex formation with zinc salts; type: binding; conditions: ZnSO4 or Zn(NO3)2, ESI-MS
Protocol: as §2

[4] = Body weight in diet-induced obesity; type: in vivo, C57Bl6/J mice
Protocol: (§3) All protocols were approved by the Institutional Animal Use and Care Committee of Cold Spring Harbor laboratory. 10 week-old male mice fed chow diet or high-fat diet (D12492) were acclimatized for 10 days under standard conditions before experiments. Mice were injected intraperitoneally (i.p.) once daily with vehicle, 5 mg/kg of DPM-1001 intraperitoneally or orally for 50 days. Mice were euthanized after 6 h of fasting, and serum samples were collected to measure the metabolic parameters and tissue samples were collected for studying changes in signaling.

JAK2 = assay: Leptin signaling in hypothalamus of treated mice; type: in vivo; conditions: leptin-induced
Protocol: Technology (JAK2, catalog 3230, clone D2E12; p-T308 AKT (catalog 13038, clone D25E6); AKT (catalog 4691, clone C67E7) and Sigma-Aldrich (actin, catalog A2228, clone AC-74).
as §3

TX mice = assay: Survival and tolerability in the TX mouse model of Wilson's disease; type: in vivo
Protocol: C3He-Atp7b^tx-j were obtained from the Jackson laboratory. All animal experiments were performed according to protocols approved by the Institutional Animal Use and Care Committee of Cold Spring Harbor laboratory. Mice were injected intraperitoneally (i.p.) with vehicle, or administered DPM-1001 intraperitoneally or orally at 5 mg/kg once every third day, for over a year. At the end of the study animals were euthanized and tissue samples were removed for biochemical studies.

metallothionein = assay: Metallothionein quantitation in liver and brain; type: in vivo, mouse; conditions: TX mice
Protocol: Tissue samples (100 mg liver or 25 mg brain) were rinsed in PBS to remove excess blood and homogenized using a dounce homogenizer on ice (PBS, 1% tween). The samples were centrifuged at 5000×g for 5 minutes and the supernatant was collected. Total protein in the supernatant was measured using Bradford reagent and an equal amount of each sample (based on protein concentration) was used to measure metallothionein levels. Mouse metallothionein Elisa kit was purchased from Lifespan Biosciences, Inc and the assay was performed according to the users manual.

non-TNBC cell lines = assay: MTT cell survival, non-TNBC cell lines; type: cell-based
Protocol: The MTT assay was used to evaluate cell survival in the absence and presence of different compounds. The thiazolyl blue tetrazolium bromide (MTT) was dissolved in phosphate buffered saline (PBS) at a concentration of 5 mg/ml, filtered, and stored at 4° C. About 10,000 cells were seeded into a 96-well plate and cultured in growth medium containing serum. After 24 hours, cells were treated with the indicated concentrations of DPM-1001 or DPM-1003 (0-100 uM) for 2 hrs. Following which 20 μl MTT was added into each well. An ELISA plate reader (Biotek, Winooski, Vermont, USA) was used to measure the optical density at 490 nm.

PTP1B-L192A/S372P, sequence (P18031 whole entry L192A/S372P): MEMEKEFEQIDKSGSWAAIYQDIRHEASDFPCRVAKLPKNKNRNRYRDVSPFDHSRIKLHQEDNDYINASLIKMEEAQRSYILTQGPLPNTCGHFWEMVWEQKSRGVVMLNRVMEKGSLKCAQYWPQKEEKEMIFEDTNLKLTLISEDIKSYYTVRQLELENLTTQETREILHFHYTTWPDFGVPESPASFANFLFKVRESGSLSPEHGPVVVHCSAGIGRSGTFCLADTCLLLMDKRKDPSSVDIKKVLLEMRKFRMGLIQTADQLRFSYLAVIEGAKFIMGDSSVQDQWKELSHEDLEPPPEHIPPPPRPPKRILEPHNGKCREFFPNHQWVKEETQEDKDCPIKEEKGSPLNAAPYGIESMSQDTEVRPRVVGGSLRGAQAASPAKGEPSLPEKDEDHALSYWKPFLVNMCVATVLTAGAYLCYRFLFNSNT

Compound: COC(=O)CCC(C)C1CCC2C3C(O)CC4CC(NCCCCNCc5ccccn5)CCC4(C)C3CCC12C (stereo not shown) [DPM-1001]
- IC50 (PTP1B-L192A/S372P): 1000 nM
- inhibitory potency for truncation mutants relative to PTP1B1-405 and PTP1B1-394 [1]: lower
- complex formation with copper [2]: Formed a Stable Complex with Copper(II)
- complexation with Zn(II) [3]: no complexation
- weight loss in chow fed mice ([4]; chow diet): without weight loss; also recorded: no weight loss
- onset of weight loss ([4]; high fat diet-fed mice): started losing weight within five days of treatment
- phosphorylation of JAK2 (JAK2): increased leptin-induced JAK2 phosphorylation; also recorded: enhanced phosphorylation of JAK2
- longevity of TX mice (in words) (TX mice; 5 mg/kg, every third day): prolongs their life
- survival at one year of age (TX mice; TX mice): 90%
- survival at one year of age (TX mice; wild-type mice): 100%
- toxic side-effects of prolonged treatment (TX mice; wild-type or TX mice): did not have overt toxic side-effects
- metallothionein levels (metallothionein): prevents elevated metallothionein expression in liver; also recorded: lowered metallothionein levels in the liver and the brain
- survival of non-TNBC cell lines, DPM-1001 versus DPM-1003 (non-TNBC cell lines): did not differ from each other

From patent US12178825B2, “Method and compositions for forming a copper-containing complex and uses thereof” (COLD SPRING HARBOR LABORATORY, priority 2017, dated 2024)
